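Exposure lasted 48 hours, with cells grown in 96-well plates and compounds tested at five concentrations. TGI is the concentration that stops growth completely.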
Key:
Test in all cases: inhibition of tumour cell growth, NCI panel, 48 h
[1] = system: SNB-75 CNS
[2] = system: DMS 273 small cell lung
[3] = system: SN12C renal
[4] = system: CCRF-CEM leukemia
[5] = system: RXF 393 renal
[6] = system: NCI-H460 lung
[7] = system: HCC-2998 colon
[8] = system: HL-60(TB) leukemia
[9] = system: RXF-631 renal
[10] = system: SNB-78 CNS
[11] = system: HCT-116 colon
[12] = system: OVCAR-4 ovarian
[13] = system: HT29 colon
[14] = system: SF-295 CNS
[15] = system: NCI-H226 lung
[16] = system: HOP-92 NSCLC
[17] = system: U251 CNS
[18] = system: A549 NSCLC
[19] = system: M19-MEL melanoma
[20] = system: OVCAR-5 ovarian
[21] = system: LXFL 529 NSCLC
[22] = system: SK-MEL-2 melanoma
[23] = system: KM12 colon
[24] = system: SF-539 CNS
[25] = system: EKVX NSCLC
[26] = system: SK-MEL-5 melanoma
[27] = system: TK-10 renal
[28] = system: MOLT-4 leukemia
[29] = system: HOP-18 NSCLC
[30] = system: CAKI-1 renal
[31] = system: MALME-3M melanoma
[32] = system: SW-620 colon
[33] = system: SK-OV-3 ovarian
[34] = system: DMS 114 small cell lung
[35] = system: K-562 leukemia
[36] = system: KM20L2 colon
[37] = system: ACHN renal
[38] = system: M14 melanoma
[39] = system: 786-0 renal
[40] = system: IGROV1 ovarian
[41] = system: HCT-15 colon
[42] = system: SNB-19 CNS
[43] = system: UO-31 renal
[44] = system: DLD-1 colon
[45] = system: RPMI-8226 leukemia
[46] = system: A498 renal
[47] = system: OVCAR-8 ovarian
[48] = system: SK-MEL-28 melanoma
[49] = system: UACC-62 melanoma
[50] = system: SF-268 CNS
[51] = system: COLO 205 colon
[52] = system: OVCAR-3 ovarian
[53] = system: NCI-H23 lung
[54] = system: UACC-257 melanoma
[55] = system: XF 498 CNS
[56] = system: LOX IMVI melanoma
[57] = system: HOP-62 NSCLC
[58] = system: SR leukemia
[59] = system: NCI-H522 lung

## COc1ccccc1NC(=O)C1=C(C)NC(C)=C(C(=O)Nc2ccccc2OC)C1c1cccc2ccccc12
[1]
  TGI: 98.8 µM
[2]
  TGI: > 100 µM
[3]
  TGI: > 100 µM
[4]
  TGI: > 100 µM
[5]
  TGI: > 100 µM
[6]
  TGI: > 100 µM
[7]
  TGI: > 100 µM
[8]
  TGI: > 100 µM
[9]
  TGI: > 100 µM
[10]
  TGI: 62.5 µM
[11]
  TGI: > 100 µM
[12]
  TGI: 41.5 µM
[13]
  TGI: > 100 µM
[14]
  TGI: > 100 µM
[15]
  TGI: > 100 µM
[16]
  TGI: 7.87 µM
[17]
  TGI: > 100 µM
[18]
  TGI: > 100 µM
[19]
  TGI: > 100 µM
[20]
  TGI: > 100 µM
[21]
  TGI: > 100 µM
[22]
  TGI: > 100 µM
[23]
  TGI: > 100 µM
[24]
  TGI: > 100 µM
[25]
  TGI: > 100 µM
[26]
  TGI: > 100 µM
[27]
  TGI: > 100 µM
[28]
  TGI: > 100 µM
[29]
  TGI: > 100 µM
[30]
  TGI: > 100 µM
[31]
  TGI: > 100 µM
[32]
  TGI: > 100 µM
[33]
  TGI: > 100 µM
[34]
  TGI: > 100 µM
[35]
  TGI: > 100 µM
[36]
  TGI: > 100 µM
[37]
  TGI: > 100 µM
[38]
  TGI: > 100 µM
[39]
  TGI: > 100 µM
[40]
  TGI: > 100 µM
[41]
  TGI: > 100 µM
[42]
  TGI: > 100 µM
[43]
  TGI: > 100 µM
[44]
  TGI: > 100 µM
[45]
  TGI: > 100 µM
[46]
  TGI: > 100 µM
[47]
  TGI: > 100 µM
[48]
  TGI: > 100 µM
[49]
  TGI: > 100 µM
[50]
  TGI: > 100 µM
[51]
  TGI: > 100 µM
[52]
  TGI: > 100 µM
[53]
  TGI: > 100 µM
[54]
  TGI: > 100 µM
[55]
  TGI: > 100 µM
[56]
  TGI: > 100 µM

## O=C(/C=C/c1ccccc1O)c1cccc2ccccc12
[1]
  TGI: > 100 µM
[2]
  TGI: > 100 µM
[3]
  TGI: > 100 µM
[57]
  TGI: > 100 µM
[4]
  TGI: 54 µM
[5]
  TGI: > 88.9 µM
[6]
  TGI: > 100 µM
[7]
  TGI: > 100 µM
[8]
  TGI: > 80.8 µM
[9]
  TGI: > 100 µM
[10]
  TGI: > 100 µM
[11]
  TGI: > 69.7 µM
[12]
  TGI: > 100 µM
[13]
  TGI: > 100 µM
[14]
  TGI: > 100 µM
[15]
  TGI: > 100 µM
[16]
  TGI: > 100 µM
[17]
  TGI: > 66.4 µM
[58]
  TGI: > 100 µM
[18]
  TGI: > 100 µM
[19]
  TGI: > 100 µM
[20]
  TGI: > 100 µM
[21]
  TGI: > 100 µM
[22]
  TGI: > 100 µM
[23]
  TGI: > 100 µM
[24]
  TGI: > 100 µM
[25]
  TGI: > 100 µM
[26]
  TGI: > 100 µM
[27]
  TGI: > 100 µM
[28]
  TGI: > 83.7 µM
[29]
  TGI: > 100 µM
[30]
  TGI: > 100 µM
[31]
  TGI: > 100 µM
[32]
  TGI: > 46.9 µM
[33]
  TGI: > 100 µM
[34]
  TGI: > 92.2 µM
[35]
  TGI: > 100 µM
[36]
  TGI: > 100 µM
[37]
  TGI: > 100 µM
[38]
  TGI: > 100 µM
[39]
  TGI: > 100 µM
[40]
  TGI: > 100 µM
[41]
  TGI: > 58.4 µM
[59]
  TGI: > 100 µM
[42]
  TGI: > 100 µM
[43]
  TGI: > 100 µM
[44]
  TGI: > 100 µM
[45]
  TGI: 76.6 µM
[46]
  TGI: > 100 µM
[47]
  TGI: > 100 µM
[48]
  TGI: > 100 µM
[49]
  TGI: > 100 µM
[50]
  TGI: > 100 µM
[51]
  TGI: > 68.6 µM
[52]
  TGI: > 100 µM
[53]
  TGI: > 100 µM
[54]
  TGI: > 100 µM
[55]
  TGI: > 100 µM
[56]
  TGI: 98.6 µM

## OCC(O)COc1c(Cl)cc(Cl)cc1Cl (centres undefined)
[1]
  TGI: > 100 µM
[2]
  TGI: > 100 µM
[3]
  TGI: > 100 µM
[57]
  TGI: > 100 µM
[4]
  TGI: > 61.9 µM
[5]
  TGI: > 100 µM
[6]
  TGI: > 100 µM
[7]
  TGI: > 100 µM
[8]
  TGI: > 100 µM
[9]
  TGI: > 100 µM
[10]
  TGI: > 100 µM
[11]
  TGI: > 100 µM
[12]
  TGI: > 100 µM
[13]
  TGI: > 100 µM
[14]
  TGI: > 100 µM
[15]
  TGI: > 100 µM
[16]
  TGI: > 100 µM
[17]
  TGI: > 100 µM
[58]
  TGI: > 100 µM
[18]
  TGI: > 100 µM
[19]
  TGI: > 100 µM
[20]
  TGI: > 100 µM
[21]
  TGI: > 100 µM
[22]
  TGI: > 100 µM
[23]
  TGI: > 100 µM
[24]
  TGI: > 100 µM
[25]
  TGI: > 100 µM
[26]
  TGI: > 100 µM
[27]
  TGI: > 100 µM
[28]
  TGI: > 31.6 µM
[29]
  TGI: > 100 µM
[30]
  TGI: > 100 µM
[31]
  TGI: > 100 µM
[32]
  TGI: > 51.9 µM
[33]
  TGI: > 100 µM
[34]
  TGI: > 100 µM
[35]
  TGI: > 66.1 µM
[36]
  TGI: > 100 µM
[37]
  TGI: > 100 µM
[38]
  TGI: > 100 µM
[39]
  TGI: > 76.5 µM
[40]
  TGI: > 100 µM
[41]
  TGI: > 100 µM
[59]
  TGI: > 100 µM
[42]
  TGI: > 100 µM
[43]
  TGI: > 100 µM
[44]
  TGI: > 100 µM
[45]
  TGI: > 64.6 µM
[46]
  TGI: > 100 µM
[47]
  TGI: > 100 µM
[48]
  TGI: > 100 µM
[49]
  TGI: > 100 µM
[50]
  TGI: > 100 µM
[51]
  TGI: > 100 µM
[52]
  TGI: > 100 µM
[53]
  TGI: > 100 µM
[54]
  TGI: > 100 µM
[55]
  TGI: > 100 µM
[56]
  TGI: > 74.1 µM

Reference: PubChem BioAssay (NCI)
